Columns and labels:
[1] = tested on: KCHSC (kochia); assay: Pre-plant incorporated (PPI) herbicidal activity, cool season; type: in vivo, Kochia scoparia; settings: for inhibition at 10 g/ha / inhibition at 30 g/ha / inhibition at 100 g/ha / inhibition at 300 g/ha / inhibition at 900 g/ha: Bassia scoparia, weed, PPI application, read-out: Percent inhibition KCHSC; for PPI activity GR80, KCHSC: pre-plant incorporated, lowest tested rate with 80% or greater inhibition, about 14 days
Procedure: (§1) In another set of tests, the pre-plant incorporated (PPI) activity of compounds of this invention was evaluated on the same species as for the pre-emergence tests described above. In the PPI tests the following procedure, designed to simulate PPI application, was used.
(§2) A pre-prepared topsoil mixture (described above) was placed in a pot and compacted to a depth of 1.0 to 1.25 cm from the top of the pot. Seeds of each of several monocotyledonous and dicotyledonous annual plant species were placed on top of the soil. A sufficient quantity of soil to cover the seeds and level fill the pot was weighed into an open container. A known amount of the test compound was dissolved or suspended in an organic solvent and applied by spraying to this cover soil. The cover soil was thoroughly mixed to distribute the test compound throughout the cover soil, and was then applied as a cover layer over the seeds. Untreated soil was used as a cover layer for control pots. After treatment the plants were placed in a greenhouse where they received 0.64 cm of overhead irrigation. All subsequent watering consisted of a light overhead mist and/or subirrigation as needed for germination and growth. Tables 9 and 10 below relate to warm season plant species which were placed after pre-emergence treatment in a greenhouse with a 30/21° C. day/night temperature regime. Tables 11 and 12 below relates to cool season plant species placed after pre-emergence treatment in a greenhouse or growth chamber with an 18/13° C. day/night temperature regime. Only the compounds of Examples 1, 6, 8, 11, 13 and 15-20 were included in PPI tests.
(§3) Approximately 14 days after planting and treating, the plants were observed and herbicidal efficacy recorded as percent inhibition by comparison with untreated plants.

[2] = tested on: BROTE (downy brome); assay: Pre-emergence herbicidal activity, cool season; type: in vivo, Bromus tectorum; settings: GR80 = lowest tested rate (300, 100, 30, 10 g/ha) with 80% or greater inhibition; approx. 14 days after treating; 18/13° C.
Method in brief: (§4)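 Seeds sown in sterilised fertilised topsoil received surface-applied compound in 50:50 acetone/water, typically at 300, 100, 30 and 10 g/ha, then greenhouse-grown at 30/21° C (warm-season species) or 18/13° C (cool-season species). Percent inhibition versus untreated plants was scored at about 14 days, giving GR80; an asterisk marks activity short of 80% at the top rate.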

[3] = tested on: POROL (common purslane); assay: Pre-plant incorporated (PPI) herbicidal activity, warm season; type: in vivo, Portulaca oleracea; settings: GR80 = lowest tested rate with 80% or greater inhibition, approx. 14 days after treating, 30/21° C.
Procedure: as §1, §2, §3

[4] = tested on: CONAR (field bindweed); assay: as above; type: in vivo, Convolvulus arvensis; settings: GR80 = lowest tested rate with 80% or greater inhibition, approx. 14 days after treating, 30/21° C.
Procedure: as §1, §2, §3

[5] = tested on: AVEFA (wild oat); assay: Pre-emergence herbicidal activity, cool season; type: in vivo, Avena fatua; settings: GR80 = lowest tested rate (300, 100, 30, 10 g/ha) with 80% or greater inhibition; approx. 14 days after treating; 18/13° C.
Method in brief: as §4

[6] = tested on: LOLMG (annual ryegrass); assay: Pre-emergence herbicidal activity, cool season; type: in vivo, Lolium multiflorum; settings: GR80 = lowest tested rate (300, 100, 30, 10 g/ha) with 80% or greater inhibition; approx. 14 days after treating; 18/13° C.
Method in brief: as §4

[7] = tested on: AVEFA (wild oat); assay: Pre-plant incorporated (PPI) herbicidal activity, cool season; type: in vivo, Avena fatua; settings: for inhibition at 10 g/ha / inhibition at 30 g/ha / inhibition at 100 g/ha / inhibition at 300 g/ha / inhibition at 900 g/ha: Avena fatua, read-out: Percent inhibition AVEFA; for inhibition at 10 g/ha / inhibition at 30 g/ha / inhibition at 100 g/ha / inhibition at 300 g/ha / inhibition at 900 g/ha / Percent inhibition AVEFA: weed, PPI application; for PPI activity GR80, AVEFA: pre-plant incorporated, lowest tested rate with 80% or greater inhibition, about 14 days
Procedure: as §1, §2, §3

[8] = tested on: ABUTH (velvetleaf); assay: Pre-emergence herbicidal activity, warm season; type: in vivo, Abutilon theophrasti; settings: GR80 = lowest tested rate (300, 100, 30, 10 g/ha) with 80% or greater inhibition; approx. 14 days after treating; 30/21° C.
Method in brief: as §4

[9] = tested on: CIRAR (canada thistle (seedling)); assay: Pre-plant incorporated (PPI) herbicidal activity, warm season; type: in vivo, Cirsium arvense; settings: GR80 = lowest tested rate with 80% or greater inhibition, approx. 14 days after treating, 30/21° C.
Procedure: as §1, §2, §3

[10] = tested on: IPOSS (annual morningglory); assay: as above; type: in vivo, Ipomoea spp.; settings: PPI application
Procedure: as §1, §2, §3

[11] = tested on: AGRRE (quackgrass (seedling)); assay: Pre-emergence herbicidal activity, cool season; type: in vivo, Elymus repens; settings: GR80 = lowest tested rate (300, 100, 30, 10 g/ha) with 80% or greater inhibition; approx. 14 days after treating; 18/13° C.
Procedure: Tables 5 to 8 summarize results of tests conducted as described below to determine the pre-emergence herbicidal activity, in the form of a GR80 value, of illustrative compounds of this invention. […] Compounds of the invention were typically applied at rates of 300, 100, 30, and 10 g/ha. Where herbicidal activity was evident but 80% inhibition was not achieved at the highest rate tested, an asterisk (*) is shown in the following tables.
The pre-emergence tests were conducted by the following procedure. Topsoil was sieved to pass through a 1.27 cm screen. Fertilizer was added to the topsoil and the mixture was then sterilized by heating. The topsoil mixture was placed in a pot and compacted to a depth of 1.0 to 1.25 cm from the top of the pot. Seeds of each of several monocotyledonous and dicotyledonous annual plant species were placed on top of the soil. Additional soil was subsequently placed over the seeds to level-fill the pot. A known amount of each test compound dissolved or suspended in an appropriate organic solvent was diluted with a 50:50 mix of acetone and water and applied to the surface of the soil. After treatment the plants were placed in a greenhouse where they received 0.64 cm of overhead irrigation. All subsequent watering consisted of a light overhead mist and/or subirrigation as needed for germination and growth. Tables 5 and 6 below relate to warm season plant species which were placed after pre-emergence treatment in a greenhouse with a 30/21° C. day/night temperature regime. Tables 7 and 8 below relates to cool season plant species placed after pre-emergence treatment in a greenhouse or growth chamber with an 18/13° C. day/night temperature regime.
as §3
The plant species usually regarded as weeds which were utilized in the tests are identified in the tables below according to the following legend, in which “d” indicates a dicotyledonous species and “m” a monocotyledonous species. All monocotyledonous species included in the tests herein are grasses.

[12] = tested on: DATST (jimsonweed); assay: Pre-emergence herbicidal activity, warm season; type: in vivo, Datura stramonium; settings: GR80 = lowest tested rate (300, 100, 30, 10 g/ha) with 80% or greater inhibition; approx. 14 days after treating; 30/21° C.
Method in brief: as §4

[13] = tested on: CONAR (field bindweed); assay: Pre-emergence herbicidal activity, warm season; type: in vivo, Convolvulus arvensis; settings: GR80 = lowest tested rate (300, 100, 30, 10 g/ha) with 80% or greater inhibition; approx. 14 days after treating; 30/21° C.
Method in brief: as §4

| Compound | PPI activity GR80, KCHSC [1] | Pre-emergence activity (GR80) BROTE [2] [g/ha] | PPI activity (GR80) POROL [3] [g/ha] | PPI activity (GR80) CONAR [4] | Pre-emergence activity (GR80) AVEFA [5] | Pre-emergence activity (GR80) LOLMG [6] [g/ha] | PPI activity GR80, AVEFA [7] | Pre-emergence activity (GR80) ABUTH [8] | PPI activity (GR80) CIRAR [9] [g/ha] | Percent inhibition AVEFA ([7]; 10 g/ha) [%] | Percent inhibition AVEFA ([7]; 30 g/ha) [%] | Percent inhibition AVEFA ([7]; 100 g/ha) [%] | Percent inhibition AVEFA ([7]; 300 g/ha) [%] | Percent inhibition AVEFA ([7]; 900 g/ha) [%] | Percent inhibition IPOSS ([10]; 10 g/ha) [%] | Percent inhibition IPOSS ([10]; 30 g/ha) [%] | Percent inhibition IPOSS ([10]; 100 g/ha) [%] | Percent inhibition IPOSS ([10]; 300 g/ha) [%] | Percent inhibition IPOSS ([10]; 900 g/ha) [%] | Pre-emergence activity (GR80) AGRRE [11] | other results |
| --- | --- | --- | --- | --- | --- | --- | --- | --- | --- | --- | --- | --- | --- | --- | --- | --- | --- | --- | --- | --- | --- |
| C=CCC(F)(F)S(=O)(=O)c1ncn(C(=O)N(CC)CC)n1 [Example 17, 1-(N,N-diethylcarbamoyl)-3-[(1,1-difluoro-3-butenyl)sulfonyl]-1,2,4-triazole] | 30 g/ha | 100 | 30 | * (activity observed, at least at highest rate, but <80% inhibition) | 100 g/ha | 100 | 100 g/ha | 300 g/ha | 300 | – | – | – | – | – | – | – | – | – | – | – | inhibition at 10 g/ha [1]: 70%; inhibition at 30 g/ha [1]: 100%; inhibition at 100 g/ha [1]: 100%; inhibition at 300 g/ha [1]: 100%; inhibition at 900 g/ha [1]: 100%; inhibition at 10 g/ha ([7]; 10 g/ha): 0%; inhibition at 30 g/ha ([7]; 30 g/ha): 15%; inhibition at 100 g/ha ([7]; 100 g/ha): 50%; inhibition at 300 g/ha ([7]; 300 g/ha): 75%; inhibition at 900 g/ha ([7]; 900 g/ha): 100% |
| CCN(CC)C(=O)n1cnc(S(=O)(=O)C(F)(F)SCC(=O)OC)n1 [Example 11] | – | – | 300 | 100 g/ha | – | – | [empty] | – | 100 | 0 | 0 | 0 | 0 | 60 | 0 | 0 | 0 | 0 | 0 | – | – |
| C=C(C)CC(F)(F)S(=O)(=O)c1ncn(C(=O)N(CC)CC)n1 [Example 18] | – | 300 | 100 | 100 g/ha | * (activity observed, at least at highest rate, but <80% inhibition) | 300 | 300 g/ha | * (activity observed, at least at highest rate, but <80% inhibition) | 30 | – | – | – | – | – | – | – | – | – | – | 300 g/ha | inhibition at 10 g/ha [1]: 40%; inhibition at 30 g/ha [1]: 80%; inhibition at 100 g/ha [1]: 80%; inhibition at 300 g/ha [1]: 100%; inhibition at 900 g/ha [1]: 100%; inhibition at 10 g/ha ([7]; 10 g/ha): 0%; inhibition at 30 g/ha ([7]; 30 g/ha): 0%; inhibition at 100 g/ha ([7]; 100 g/ha): 10%; inhibition at 300 g/ha ([7]; 300 g/ha): 50%; inhibition at 900 g/ha ([7]; 900 g/ha): 99%; Pre-emergence activity (GR80) DATST [12]: 300 g/ha |
| CCN(CC)C(=O)n1cnc(S(=O)(=O)C(F)(F)C(F)(F)SC)n1 [Example 14] | – | – | – | – | 300 g/ha | – | – | – | – | – | – | – | – | – | – | – | – | – | – | * (activity observed, at least at highest rate, but <80% inhibition) | Pre-emergence activity (GR80) CONAR [13]: * (activity observed, at least at highest rate, but <80% inhibition) |
| CCN(CC)C(=O)n1cnc(S(=O)(=O)C(F)(F)C(F)F)n1 [Example 16] | 30 g/ha | – | 10 | 100 g/ha | 300 g/ha | 300 | 300 g/ha | 300 g/ha | 30 | 0 | 0 | 0 | 80 | 90 | 0 | 0 | 0 | 0 | 50 | * (activity observed, at least at highest rate, but <80% inhibition) | Pre-emergence activity (GR80) CONAR [13]: 300 g/ha; Pre-emergence activity (GR80) DATST [12]: 300 g/ha |
| CCN(CC)C(=O)n1cnc(S(=O)(=O)C(F)(F)SCc2ccccc2)n1 [Example 10] | – | – | – | – | – | – | – | – | – | 0 | 0 | 20 | 40 | 95 | 0 | 0 | 0 | 0 | 50 | – | – |
| CCN(CC)C(=O)n1cnc(S(=O)(=O)C(F)(F)SCCOC)n1 [Example 13] | * (activity observed, at least at highest rate, but <80% inhibition) | 300 | 100 | * (activity observed, at least at highest rate, but <80% inhibition) | 300 g/ha | – | [empty] | 300 g/ha | 100 | 0 | 0 | 0 | 50 | 90 | 0 | 0 | 0 | 10 | 100 | – | – |
